# Key:
# [1] = biological target: T1, Hepatocyte growth factor receptor (Homo sapiens, UniProt P08581); assay: Inhibition of GST-tagged c-Met (unknown origin) assessed as phosphotyrosine levels preincubated foe 15 mins followed by addition of poly(glutamic acid-tyrosine (4:1)) as substrate and ATP by ELISA
# [2] = Cytotoxicity against human HOP62 cells measured after 48 hrs by SRB assay; format: functional; conditions: HOP-62, 48 h
# [3] = Cytotoxicity against human HL-60(TB) cells measured after 48 hrs by SRB assay; format: functional; conditions: HL-60, 48 h
# [4] = Cytotoxicity against human MOLT4 cells measured after 48 hrs by SRB assay; format: functional; conditions: MOLT-4, 48 h
# [5] = Anticancer activity against human IMR32 cells measured after 48 hrs by MTT assay; format: functional, cell-based; conditions: IMR-32, 48 h
# [6] = Antiproliferative activity against human MCF7 cells measured after 48 hrs by MTT assay; format: functional, cell-based; conditions: MCF7, 48 h
# [7] = Anticancer activity against human HeLa cells measured after 48 hrs by MTT assay; format: functional, cell-based
# [8] = Cytotoxicity against porcine testicular cells assessed as cell death at 120 to 250 ug/ml; format: toxicity, cell-based, Sus scrofa; conditions: pig
# [9] = Antiproliferative activity against human K562 cells measured after 48 hrs by WST1 assay; format: functional, cell-based; conditions: K562, 48 h
# [10] = biological target: T2, Tyrosine-protein phosphatase non-receptor type 11 (Homo sapiens, UniProt Q06124)
# T2 sequence (Q06124 whole entry): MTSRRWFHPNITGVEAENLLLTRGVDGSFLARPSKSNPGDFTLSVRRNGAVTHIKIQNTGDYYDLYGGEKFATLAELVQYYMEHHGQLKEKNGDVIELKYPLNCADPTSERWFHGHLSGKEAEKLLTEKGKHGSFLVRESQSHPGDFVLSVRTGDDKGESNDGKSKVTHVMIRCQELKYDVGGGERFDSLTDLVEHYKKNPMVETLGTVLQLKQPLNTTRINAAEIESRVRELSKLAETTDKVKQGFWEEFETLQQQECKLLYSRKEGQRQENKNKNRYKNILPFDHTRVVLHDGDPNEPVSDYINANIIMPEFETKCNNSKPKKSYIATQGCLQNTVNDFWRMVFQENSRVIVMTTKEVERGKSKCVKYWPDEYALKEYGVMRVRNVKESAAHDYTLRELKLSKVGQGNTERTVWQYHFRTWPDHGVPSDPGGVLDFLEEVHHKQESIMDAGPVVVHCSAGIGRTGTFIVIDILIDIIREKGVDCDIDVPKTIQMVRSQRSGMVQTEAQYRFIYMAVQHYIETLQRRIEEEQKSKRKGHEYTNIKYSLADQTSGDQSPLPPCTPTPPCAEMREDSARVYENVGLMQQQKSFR
# Description: Inhibition of human GST-tagged Shp2 (205 to 593 residues) expressed Escherichia coli DH5alpha assessed as inhibition of PTP activity using DiFMUP as substrate measured after 30 mins by fluorescence analysis
# [11] = Antiproliferative activity against mouse L1210 cells; format: functional, cell-based
# [12] = Cytotoxicity against human HepG2 cells measured after 72 hrs by SRB assay; format: functional, cell-based; conditions: HepG2, 72 h
# [13] = Antiproliferative activity against human MCF7 cells measured after 48 hrs by SRB assay; format: functional, cell-based; conditions: MCF7, 48 h
# [14] = biological target: T1, Hepatocyte growth factor receptor; assay: Inhibition of C-Met in human S114 cells assessed as inhibition of HGF-stimulated autophosphorylation preincubated for 60 mins followed by HGF-stimulation measured after 15 minsby DELFIA method; format: cell-based
# HeLa = assay: Inhibition of HDAC in human HeLa cell nuclear extract at 30 uM using Fluor de Lys as substrate measured after 10 to 15 mins by fluorimetric assay; format: cell-free
# [15] = Cytotoxicity against human KBV1 cells expressing P-glycoprotein measured after 72 hrs by MTT assay; format: functional, cell-based; conditions: KB-V1, 72 h
# [16] = biological target: Glycogen synthase kinase-3 beta (Homo sapiens, UniProt P49841); assay: Inhibition of GSK-3beta (unknown origin) assessed as inhibition of phosphorylation using Ser/Thr 9 peptide as substrate by FRET-based Z-LYTE assay
# [17] = Cytotoxicity against human U251 cells measured after 48 hrs by SRB assay; format: functional; conditions: U-251, 48 h
# [18] = Cytotoxicity against human […] cells measured after 48 hrs by SRB assay; format: functional; conditions: RXF 393, 48 h
# [19] = Cytotoxicity against human UO31 cells measured after 48 hrs by SRB assay; format: functional; conditions: UO-31, 48 h
# [20] = Cytotoxicity against human KB-3-1 cells measured after 72 hrs by MTT assay; format: functional, cell-based; conditions: KB 3-1, 72 h
# [21] = Growth inhibition of human NCI-H522 cells measured after 48 hrs by SRB assay; format: functional
# [22] = biological target: Epidermal growth factor receptor (Homo sapiens) (UniProt P00533); assay: Inhibition of EGFR (unknown origin) at 100 uM relative to control
# [23] = Growth inhibition of human SR cells measured after 48 hrs by SRB assay; format: functional
# [24] = Growth inhibition of human MDA-MB-468 cells measured after 48 hrs by SRB assay; format: functional
# T1 sequence (P08581 whole entry): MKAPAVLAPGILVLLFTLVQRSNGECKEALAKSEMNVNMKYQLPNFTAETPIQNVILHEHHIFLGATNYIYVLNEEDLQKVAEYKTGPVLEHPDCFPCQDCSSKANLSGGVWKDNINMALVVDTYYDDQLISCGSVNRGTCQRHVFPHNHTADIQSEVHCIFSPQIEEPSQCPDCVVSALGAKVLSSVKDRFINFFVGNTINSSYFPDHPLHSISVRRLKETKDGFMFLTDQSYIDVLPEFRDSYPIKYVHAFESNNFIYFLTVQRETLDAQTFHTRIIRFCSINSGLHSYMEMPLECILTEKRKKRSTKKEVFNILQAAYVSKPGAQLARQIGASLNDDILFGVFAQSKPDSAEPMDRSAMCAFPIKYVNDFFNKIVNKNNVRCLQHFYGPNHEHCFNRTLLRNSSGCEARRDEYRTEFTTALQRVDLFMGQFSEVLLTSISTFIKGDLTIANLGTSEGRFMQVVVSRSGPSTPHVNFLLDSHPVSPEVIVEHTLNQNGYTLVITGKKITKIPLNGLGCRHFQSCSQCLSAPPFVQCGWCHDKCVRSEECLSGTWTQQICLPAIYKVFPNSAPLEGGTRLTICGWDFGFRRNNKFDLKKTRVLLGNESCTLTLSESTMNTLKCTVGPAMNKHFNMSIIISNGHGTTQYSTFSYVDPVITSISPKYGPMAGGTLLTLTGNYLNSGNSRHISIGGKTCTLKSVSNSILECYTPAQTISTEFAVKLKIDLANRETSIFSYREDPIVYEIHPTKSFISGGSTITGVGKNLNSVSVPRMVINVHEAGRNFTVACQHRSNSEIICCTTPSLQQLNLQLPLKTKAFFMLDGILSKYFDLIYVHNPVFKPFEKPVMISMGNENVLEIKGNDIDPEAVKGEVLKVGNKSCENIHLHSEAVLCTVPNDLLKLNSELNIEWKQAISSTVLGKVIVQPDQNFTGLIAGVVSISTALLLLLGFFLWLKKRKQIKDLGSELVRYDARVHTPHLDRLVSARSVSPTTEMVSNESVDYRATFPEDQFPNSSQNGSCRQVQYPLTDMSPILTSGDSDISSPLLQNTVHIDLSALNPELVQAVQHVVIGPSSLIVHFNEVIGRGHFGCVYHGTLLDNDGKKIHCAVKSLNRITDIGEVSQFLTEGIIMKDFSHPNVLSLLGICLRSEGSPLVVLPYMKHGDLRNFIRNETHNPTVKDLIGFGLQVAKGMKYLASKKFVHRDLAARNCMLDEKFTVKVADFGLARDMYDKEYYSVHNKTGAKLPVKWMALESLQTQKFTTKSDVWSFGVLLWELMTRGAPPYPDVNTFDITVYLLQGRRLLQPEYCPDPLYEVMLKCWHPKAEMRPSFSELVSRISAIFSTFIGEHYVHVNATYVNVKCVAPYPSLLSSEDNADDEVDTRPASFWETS
# Glycogen synthase kinase-3 beta, sequence (P49841 whole entry): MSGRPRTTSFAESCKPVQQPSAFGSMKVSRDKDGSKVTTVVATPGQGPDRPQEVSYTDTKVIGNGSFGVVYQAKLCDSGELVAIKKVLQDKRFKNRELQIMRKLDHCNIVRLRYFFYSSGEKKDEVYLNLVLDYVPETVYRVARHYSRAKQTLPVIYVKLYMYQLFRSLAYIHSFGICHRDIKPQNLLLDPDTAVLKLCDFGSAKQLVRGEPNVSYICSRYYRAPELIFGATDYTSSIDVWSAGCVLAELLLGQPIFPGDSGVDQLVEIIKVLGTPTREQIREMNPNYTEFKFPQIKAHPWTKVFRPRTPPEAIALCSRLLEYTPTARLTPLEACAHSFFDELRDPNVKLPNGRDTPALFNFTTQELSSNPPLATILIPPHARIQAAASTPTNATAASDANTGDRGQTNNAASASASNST
# Epidermal growth factor receptor (Homo sapiens), sequence (P00533 whole entry): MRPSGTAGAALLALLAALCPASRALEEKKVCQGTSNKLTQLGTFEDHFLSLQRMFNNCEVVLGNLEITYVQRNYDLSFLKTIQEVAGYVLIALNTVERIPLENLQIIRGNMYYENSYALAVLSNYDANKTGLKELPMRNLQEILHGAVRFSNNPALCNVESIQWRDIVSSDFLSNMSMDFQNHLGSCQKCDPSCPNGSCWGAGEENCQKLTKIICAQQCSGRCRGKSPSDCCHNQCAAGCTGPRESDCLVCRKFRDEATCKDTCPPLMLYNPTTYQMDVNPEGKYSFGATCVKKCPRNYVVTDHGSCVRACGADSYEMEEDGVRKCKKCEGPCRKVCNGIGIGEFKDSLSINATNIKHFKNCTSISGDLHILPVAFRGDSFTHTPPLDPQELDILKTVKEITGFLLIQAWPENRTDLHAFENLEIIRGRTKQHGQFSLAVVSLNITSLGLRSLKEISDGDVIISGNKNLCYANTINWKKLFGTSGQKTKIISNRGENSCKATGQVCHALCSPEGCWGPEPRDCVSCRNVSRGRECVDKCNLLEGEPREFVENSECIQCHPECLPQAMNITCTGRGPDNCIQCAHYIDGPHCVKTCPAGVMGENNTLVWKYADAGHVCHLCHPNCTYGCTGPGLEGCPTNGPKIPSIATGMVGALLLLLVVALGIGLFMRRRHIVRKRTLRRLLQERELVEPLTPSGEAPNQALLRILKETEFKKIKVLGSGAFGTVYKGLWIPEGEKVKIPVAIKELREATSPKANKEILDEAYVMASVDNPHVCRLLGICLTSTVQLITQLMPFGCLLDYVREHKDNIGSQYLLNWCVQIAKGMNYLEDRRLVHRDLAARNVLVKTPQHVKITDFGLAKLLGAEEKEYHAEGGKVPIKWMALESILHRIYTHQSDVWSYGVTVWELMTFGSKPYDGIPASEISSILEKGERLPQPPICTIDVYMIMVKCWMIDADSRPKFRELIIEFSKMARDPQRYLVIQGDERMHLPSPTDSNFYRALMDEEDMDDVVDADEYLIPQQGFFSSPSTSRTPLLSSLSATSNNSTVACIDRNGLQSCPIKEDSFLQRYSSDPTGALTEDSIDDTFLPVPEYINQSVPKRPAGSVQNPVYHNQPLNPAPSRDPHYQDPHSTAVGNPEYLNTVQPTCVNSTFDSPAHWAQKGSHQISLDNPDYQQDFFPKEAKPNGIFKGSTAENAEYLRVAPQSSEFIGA
structure (smiles),measurement,setting,value
CS(=O)(=O)c1ccc(CC(=O)N/N=C2\C(=O)Nc3ccccc32)cc1,IC50,[1],> 20000 nM
O=C1/C(=N\NC(=S)Nc2ccccc2)c2cc([N+](=O)[O-])ccc2N1CN1CCCCC1,GI50,[2],< 10 nM
same,GI50,[3],501 nM
same,GI50,[4],661 nM
O=C(N/N=C1\C(=O)Nc2ccc(Br)cc21)Nc1nc2ccccc2o1,IC50,[5],13700 nM
same,IC50,[6],17900 nM
same,IC50,[7],15900 nM
CN1CCN(CC(=O)N/N=C2\C(=O)Nc3ccc4ccccc4c32)CC1,Activity,[8],100%
Cc1nc(-c2ccccc2)ccc1C(=O)N/N=C1\C(=O)Nc2ccc(Br)cc21,IC50,[9],25000 nM
O=C(Cc1ccc(O)c(F)c1)N/N=C1\C(=O)Nc2c(Cl)ccc(Cl)c21,IC50,[1],9 nM
O=C1Nc2ccc(S(=O)(=O)O)cc2/C1=N/Nc1ccccc1[N+](=O)[O-],IC50,[10],4990 nM
Cc1ccc2c(c1)/C(=N/NC(=O)N/N=C1\C(=O)Nc3ccc(C)cc31)C(=O)N2,IC50,[11],16000 nM
O=C1Nc2ccc(F)cc2/C1=N/Nc1nc(-c2ccccc2)nc2ccccc12,IC50,[12],1000 to 2400 nM
Nc1c(C(=O)N/N=C2\C(=O)Nc3ccc([N+](=O)[O-])cc32)cnn1C(=O)c1ccc(-c2nc3ccccc3s2)cc1,IC50,[13],10 nM
CSc1ccc(CC(=O)N/N=C2\C(=O)Nc3ccccc32)cc1,IC50,[1],> 20000 nM
O=C(Cc1ccc2c(c1)CCO2)N/N=C1\CNc2cc(C(=O)NCCCCN3CC[C@H](O)C3)cc(Br)c21,IC50,[14],0.7 nM
Cc1[nH]c(/C=N/N=C2\C(=O)Nc3ccc(F)cc32)c(C)c1C(=O)NCCCCCCCC(=O)NO,inhibition,HeLa,98%
COc1ccc(NC(=S)N/N=C2\C(=O)Nc3ccccc32)cc1,IC50,[15],3300 nM
Cc1cc2c(cc1Br)NC(=O)/C2=N\NC(=O)c1ccccc1O,IC50,[16],15800 nM
O=C1Nc2ccc(Cl)cc2/C1=N/Nc1nc(-c2ccc3c(c2)OCO3)nc2ccccc12,IC50,[12],1000 to 2400 nM
COc1ccc(-c2nc(N/N=C3\C(=O)Nc4ccccc43)c3ccccc3n2)cc1OC,IC50,[12],1000 to 2400 nM
O=C(Cc1ccc2c(c1)CCO2)N/N=C1\CNc2cc(C(=O)NCCCCN3CCC[C@H]3CO)cc(Br)c21,IC50,[14],0.5 nM
O=C(CSc1nc2ccccc2c(=O)n1-c1ccccc1)N/N=C1\C(=O)Nc2ccc(F)cc21,GI50,[17],1700 nM
same,GI50,[18],1660 nM
same,GI50,[19],209 nM
O=C(Cc1ccc2c(c1)CCO2)N/N=C1\CNc2cc(C(=O)NCCN3CCOCC3)cc(Br)c21,IC50,[14],0.7 nM
O=C1Nc2ccc(OC(F)(F)F)cc2/C1=N/N=C1/C(=O)N(c2ccccc2)c2ccccc21,IC50,[20],7670 nM
same,IC50,[15],4800 nM
O=c1[nH]cc(F)c(=O)[nH]1 [FLUOROURACIL],GI50,[17],42700 nM
same,GI50,[18],55000 nM
same,GI50,[19],6760 nM
O=C(Cc1ccc(O)c(Cl)c1)N/N=C1\C(=O)Nc2c(Cl)ccc(Cl)c21,IC50,[1],9 nM
O=C(CN/N=C1\C(=O)Nc2ccccc21)Nc1nc2ccc(Cl)cc2s1,growth inhibition (GI),[21],27.5%
same,inhibition,[22],36.6%
same,growth inhibition (GI),[23],26.6%
same,growth inhibition (GI),[24],38.1%
